# Laboratory results reported in PMC12546632, “The role of cytochrome bc1 inhibitors in future tuberculosis treatment regimens” (Nature Communications, 2025).
# Where “and” joins values, the source holds several entries; their conditions need not be identical. Equal entries are not always repeated. Entries after “also recorded” stand apart in the source; their conditions may differ. Where two headings read alike, the source gives them in different places. Marks after values point to notes of the source that are not given here.
# How the values were obtained:
# [1] = system: M. tuberculosis ΔcydAB (Parent); test: microbe, parasite or virus in culture; type: cell-based; conditions: Mycobacterium tuberculosis
# [2] = system: M. tuberculosis reference strain H37Rv; test: Survival under monotherapy in intravenous model (related to Study C); type: in vivo, Mycobacterium tuberculosis; conditions: for Day of death, individual mice: monotherapy, read with the 1/0 flag of the same line (96 with flag 0)
# M. tuberculosis H37Rv [3] = test: MIC90 determination, H37Rv; type: cell-based, Mycobacterium tuberculosis; conditions: Mycobacterium tuberculosis, H37RV; read-out: MIC90 (H37Rv)
# H37Rv_CydBd-KO = test: microbe, parasite or virus in culture; type: cell-based, Mycobacterium tuberculosis; conditions: Mycobacterium tuberculosis
# M. tuberculosis H37Rv [4] = test: MBC99.9 determination, H37Rv; type: cell-based, Mycobacterium tuberculosis; conditions: Mycobacterium tuberculosis, H37RV
# H37Rv_CytBd-KO = test: microbe, parasite or virus in culture; type: cell-based, Mycobacterium tuberculosis; conditions: Mycobacterium tuberculosis; read-out: MBC99.9 (H37Rv_CytBd-KO)
# WT H37Rv = type: cell-based, Mycobacterium tuberculosis; conditions: biological replicates
# N1283 clinical isolate = type: cell-based, Mycobacterium tuberculosis; conditions: biological replicates
# [5] = type: in vitro ADME
# Procedure: (§1) Details of the metabolic stability in liver microsomes and hepatocytes together with CYP inhibition in human liver microsomes and plasma protein binding have been published previously. The CYP induction assay was conducted by Puracyp Inc (www.puracyp.com). Studies were designed to evaluate the effect of compounds on the activation of human PXR (hPXR). The DPX2TM cells harbour the human PXR gene (NR1I2) and a luciferase reporter gene linked to two promoters identified in the human CYP3A4 gene, namely XREM and PXRE. These cells were seeded in a 96-well plate. Twenty-four hours after seeding, the cells were treated with various concentrations of compounds then incubated for an additional 24 h. Following this, the number of viable cells per well were determined using Promega’s CellTiter Fluor Cytotoxicity Assay. Briefly, One-Glo was added to the same wells and reporter gene activity was assessed. The luminescence light intensity was directly proportional to the extent of PXR activation and accompanying gene transcription in the DPX2TM cells.
# human PXR (hPXR) = human PXR (hPXR) (Homo sapiens, UniProt O75469); type: in vitro ADME
# Procedure: as §1
# [6] = type: in vitro ADME; conditions: hepatocytes
# 3A4 = target: T1, 3A4 (Homo sapiens, UniProt P08684); type: in vitro ADME
# T1 construct: from tissue; host or cells: human liver microsomes
# 2C19 = target: T2, 2C19 (Homo sapiens, UniProt P33261); type: in vitro ADME
# T2 construct: from tissue; host or cells: human liver microsomes
# 2C8 = target: T3, 2C8 (Homo sapiens, UniProt P10632); type: in vitro ADME
# T3 construct: from tissue; host or cells: human liver microsomes
# 2C9 = target: T4, 2C9 (Homo sapiens, UniProt P11712); type: in vitro ADME
# T4 construct: from tissue; host or cells: human liver microsomes
# 2D6 = target: T5, 2D6 (Homo sapiens, UniProt P10635); type: in vitro ADME
# T5 construct: from tissue; host or cells: human liver microsomes
# 1A2 = target: T6, 1A2 (Homo sapiens, UniProt P05177); type: in vitro ADME
# T6 construct: from tissue; host or cells: human liver microsomes
# HepG2 cells = conditions: human, 24 h
# [7] = system: Salmonella typhimurium strains TA98 and TAMix
# [8] = CD-1, mouse, in vivo
# [9] = female, Balb/c, mouse, in vivo, po, 5 mg/kg
# MDR-TB strains = conditions: cited from earlier work
# [10] = system: M. tuberculosis cytochrome bd knockout (CytBd-KO) strain; design: method as in PMID 40191462; conditions: acute mouse model; cited from earlier work
# in vivo [11] = conditions: CD-1, mouse; for half-life: t½
# in vivo [12] = conditions: female, Balb/c, mouse, po, 5 mg/kg
# in vitro [13] = conditions: human
# in vitro [14] = conditions: human; remark: listed apart in the source
# human PXR (hPXR), sequence (O75469 whole entry): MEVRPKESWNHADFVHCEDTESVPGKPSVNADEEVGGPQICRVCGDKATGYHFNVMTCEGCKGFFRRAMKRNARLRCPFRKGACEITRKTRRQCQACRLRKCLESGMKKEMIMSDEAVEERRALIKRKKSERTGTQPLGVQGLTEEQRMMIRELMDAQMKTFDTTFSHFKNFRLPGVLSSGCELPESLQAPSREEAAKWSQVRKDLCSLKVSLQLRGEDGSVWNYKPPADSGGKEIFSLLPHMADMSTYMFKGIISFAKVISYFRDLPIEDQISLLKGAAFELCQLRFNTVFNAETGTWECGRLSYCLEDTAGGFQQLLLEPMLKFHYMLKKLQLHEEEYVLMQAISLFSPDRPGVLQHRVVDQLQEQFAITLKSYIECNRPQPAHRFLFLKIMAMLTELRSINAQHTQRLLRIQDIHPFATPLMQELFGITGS
# T2 sequence (P33261 whole entry): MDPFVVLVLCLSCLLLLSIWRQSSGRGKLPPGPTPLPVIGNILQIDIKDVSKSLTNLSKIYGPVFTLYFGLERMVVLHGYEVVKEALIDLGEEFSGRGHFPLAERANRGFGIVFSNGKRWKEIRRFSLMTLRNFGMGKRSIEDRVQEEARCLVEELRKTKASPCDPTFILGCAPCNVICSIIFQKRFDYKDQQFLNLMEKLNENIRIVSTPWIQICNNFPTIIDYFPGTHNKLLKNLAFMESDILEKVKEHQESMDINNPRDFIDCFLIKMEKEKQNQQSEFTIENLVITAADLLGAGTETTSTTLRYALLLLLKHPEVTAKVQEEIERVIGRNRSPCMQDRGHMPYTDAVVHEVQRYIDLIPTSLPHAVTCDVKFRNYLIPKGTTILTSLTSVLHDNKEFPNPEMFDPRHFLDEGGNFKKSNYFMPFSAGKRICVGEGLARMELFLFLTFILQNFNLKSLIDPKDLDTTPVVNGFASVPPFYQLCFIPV
# T5 sequence (P10635 whole entry): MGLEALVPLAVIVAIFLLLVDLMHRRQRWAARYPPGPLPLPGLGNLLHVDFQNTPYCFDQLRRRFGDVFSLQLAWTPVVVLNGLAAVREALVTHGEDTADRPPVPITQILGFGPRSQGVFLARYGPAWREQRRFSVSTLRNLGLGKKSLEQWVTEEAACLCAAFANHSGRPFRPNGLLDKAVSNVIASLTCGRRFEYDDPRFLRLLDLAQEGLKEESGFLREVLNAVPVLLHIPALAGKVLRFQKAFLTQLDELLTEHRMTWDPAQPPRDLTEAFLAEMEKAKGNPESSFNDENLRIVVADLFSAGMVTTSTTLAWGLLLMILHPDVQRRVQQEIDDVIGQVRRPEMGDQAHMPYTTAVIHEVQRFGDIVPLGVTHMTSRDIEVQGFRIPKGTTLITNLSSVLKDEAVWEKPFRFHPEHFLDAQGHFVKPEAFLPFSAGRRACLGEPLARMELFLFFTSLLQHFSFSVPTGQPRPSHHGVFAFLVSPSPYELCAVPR
# T3 sequence (P10632 whole entry): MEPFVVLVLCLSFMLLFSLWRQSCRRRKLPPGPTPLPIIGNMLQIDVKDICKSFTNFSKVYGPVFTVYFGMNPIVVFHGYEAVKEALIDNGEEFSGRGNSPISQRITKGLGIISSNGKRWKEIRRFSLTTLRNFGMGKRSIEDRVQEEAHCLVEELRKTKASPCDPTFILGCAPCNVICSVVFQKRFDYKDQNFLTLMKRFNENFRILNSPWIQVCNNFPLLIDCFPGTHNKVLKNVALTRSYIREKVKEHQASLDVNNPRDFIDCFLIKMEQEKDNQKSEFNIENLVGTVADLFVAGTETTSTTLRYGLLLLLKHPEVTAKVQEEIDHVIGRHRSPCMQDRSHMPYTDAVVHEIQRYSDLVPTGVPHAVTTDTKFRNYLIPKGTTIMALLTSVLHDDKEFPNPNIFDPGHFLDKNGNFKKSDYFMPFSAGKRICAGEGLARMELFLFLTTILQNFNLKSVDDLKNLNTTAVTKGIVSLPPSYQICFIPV
# T1 sequence (P08684 whole entry): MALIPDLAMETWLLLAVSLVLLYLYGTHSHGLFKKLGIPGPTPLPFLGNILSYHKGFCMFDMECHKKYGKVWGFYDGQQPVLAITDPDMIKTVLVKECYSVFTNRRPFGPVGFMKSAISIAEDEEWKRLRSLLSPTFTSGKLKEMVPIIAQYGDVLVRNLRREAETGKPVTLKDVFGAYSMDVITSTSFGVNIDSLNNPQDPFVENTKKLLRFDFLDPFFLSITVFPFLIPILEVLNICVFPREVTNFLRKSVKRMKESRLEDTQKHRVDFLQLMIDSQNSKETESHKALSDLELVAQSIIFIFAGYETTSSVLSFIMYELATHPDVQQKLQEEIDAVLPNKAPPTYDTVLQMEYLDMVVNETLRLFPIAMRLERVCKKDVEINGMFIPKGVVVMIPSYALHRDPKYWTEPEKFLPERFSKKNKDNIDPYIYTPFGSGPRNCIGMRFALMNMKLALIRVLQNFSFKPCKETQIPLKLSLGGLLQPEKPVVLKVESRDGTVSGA
# T4 sequence (P11712 whole entry): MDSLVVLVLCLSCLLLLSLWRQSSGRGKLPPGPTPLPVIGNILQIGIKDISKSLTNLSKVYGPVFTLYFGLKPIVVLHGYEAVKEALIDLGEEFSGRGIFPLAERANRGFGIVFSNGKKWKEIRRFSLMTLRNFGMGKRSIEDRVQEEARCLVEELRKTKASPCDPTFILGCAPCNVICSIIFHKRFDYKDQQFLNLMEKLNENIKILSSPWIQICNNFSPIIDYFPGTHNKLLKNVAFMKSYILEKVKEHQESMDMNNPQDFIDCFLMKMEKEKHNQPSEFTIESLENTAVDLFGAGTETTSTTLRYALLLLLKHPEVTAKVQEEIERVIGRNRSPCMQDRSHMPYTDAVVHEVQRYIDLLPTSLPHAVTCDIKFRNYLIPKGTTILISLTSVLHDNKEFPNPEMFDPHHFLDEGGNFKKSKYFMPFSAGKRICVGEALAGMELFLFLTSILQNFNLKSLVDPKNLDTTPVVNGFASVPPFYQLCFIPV
# T6 sequence (P05177 whole entry): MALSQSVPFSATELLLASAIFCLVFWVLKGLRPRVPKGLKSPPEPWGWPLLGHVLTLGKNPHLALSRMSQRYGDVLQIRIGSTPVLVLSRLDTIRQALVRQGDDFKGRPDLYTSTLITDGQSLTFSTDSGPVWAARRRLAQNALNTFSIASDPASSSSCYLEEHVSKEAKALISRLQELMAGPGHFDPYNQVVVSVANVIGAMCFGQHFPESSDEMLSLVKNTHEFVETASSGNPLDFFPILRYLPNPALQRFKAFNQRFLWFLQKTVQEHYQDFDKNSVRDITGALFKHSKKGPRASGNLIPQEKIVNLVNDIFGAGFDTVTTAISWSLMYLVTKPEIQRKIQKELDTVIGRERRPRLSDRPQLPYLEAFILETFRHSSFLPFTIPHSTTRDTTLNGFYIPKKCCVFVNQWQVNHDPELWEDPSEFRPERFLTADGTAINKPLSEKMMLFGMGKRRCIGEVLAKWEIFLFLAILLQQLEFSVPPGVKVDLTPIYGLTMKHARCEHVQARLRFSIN
structure (smiles),measurement,setting,value
"CO[C@H]1/C=C/O[C@@]2(C)Oc3c(C)c(O)c4c(O)c(c(/C=N/N5CCN(C)CC5)c(O)c4c3C2=O)NC(=O)/C(C)=C\C=C\[C@H](C)[C@H](O)[C@@H](C)[C@@H](O)[C@@H](C)[C@H](OC(C)=O)[C@@H]1C [Rifampicin, rifampicin]",MIC50,[1],0.1 µM
CCc1nc2ccc(Cl)cn2c1C(=O)NCc1ccc(C2CC3(C2)CN(S(=O)(=O)C(F)(F)F)C3)cc1 [JNJ-2901],"Day of death, individual mice","[2]; intravenous model, listed as J-901",16* and 20 and 54 and 26 and 77 and 82
same,Survival of mice under monotherapy,"[2]; intravenous model, six mice per group, treated for three months, 5 days per week, bedaquiline 25, moxifloxacin 100, JNJ-2901 10 mg kg-1",inability to rescue mice
same,MIC90,M. tuberculosis H37Rv [3],0.009 µM
same,MIC90,H37Rv_CydBd-KO,0.006 µM
same,MBC,M. tuberculosis H37Rv [4],> 0.5 µM
same,MBC,H37Rv_CytBd-KO,0.015 µM
same,CFU counts,WT H37Rv; Conc 8 nM,80000000 CFU and 35000000 CFU and 53000000 CFU and 30000000 CFU
same,CFU counts,WT H37Rv; Conc 32 nM,60000000 CFU and 30000000 CFU and 17000000 CFU and 12000000 CFU
same,CFU counts,WT H37Rv; Conc 128 nM,20000000 CFU and 14000000 CFU and 12000000 CFU
same,CFU counts,N1283 clinical isolate; Conc 8 nM,9000000 CFU and 800000 CFU and 200000 CFU
same,CFU counts,N1283 clinical isolate; Conc 32 nM,110000 CFU and 300000 CFU and 80000 CFU and 50000 CFU
same,CFU counts,N1283 clinical isolate; Conc 128 nM,20000 CFU and 50000 CFU and 90000 CFU and 80000 CFU
same,MIC50,[1],0.01 µM
same,Dog Hep Clint,[5]; hepatocytes,13 µL min-1 106 cells-1
same,Human Hep Clint,[5]; hepatocytes,10 µL min-1 106 cells-1
same,Rat Hep Clint,[5]; hepatocytes,16 µL min-1 106 cells-1
same,Dog LM Clint,[5]; microsomes,13.1 µL min-1 mg protein-1
same,Human LM Clint,[5]; microsomes,63.3 µL min-1 mg protein-1
same,Mouse LM Clint,[5]; microsomes,41.0 µL min-1 mg protein-1
same,Rat LM Clint,[5]; microsomes,17.9 µL min-1 mg protein-1
same,Cyp3A4 ind. (%ctrl),human PXR (hPXR); 1.25 µM,3.1 %ctrl
same,Cyp3A4 ind. (%ctrl),human PXR (hPXR); 10 µM,11 %ctrl
same,Mouse Hep Clint,[6],15 µL min-1 106 cells-1
same,IC50,3A4,> 10 µM
same,IC50,2C19,> 10 µM
same,IC50,2C8,> 10 µM
same,IC50,2C9,> 10 µM
same,IC50,2D6,> 10 µM
same,IC50,1A2,> 10 µM
same,IC50,HepG2 cells,> 100 µM
same,Mutagenicity (AMES II),[7],negative
same,CLp as % LBF,"[8]; iv, 1 mg/kg",~ 9 % LBF
same,AUC0-inf,"[8]; female, po, 5 mg/kg",5.287 ± 0.656 µg·h/mL
same,AUC0-inf,[9],28.5 ± 0.935 µg·h/mL
same,activity against MDR-TB strains,MDR-TB strains,sub-nanomolar; also recorded: more active compared to lab-adapted strains
same,reduction in bacterial burden,[10],4 log
same,MRT,"in vivo [11]; iv, 1 mg/kg",9.1 ± 0.6 h
same,Vd,"in vivo [11]; iv, 1 mg/kg",4.4 ± 0.8 L/kg
same,clearance,"in vivo [11]; iv, 1 mg/kg",0.384 ± 0.096 L/h/kg
same,half-life,"in vivo [11]; iv, 1 mg/kg",12 ± 0.2 h
same,bioavailability,"in vivo [11]; female, po, 5 mg/kg",70 ± 14%
same,AUC0-inf,"in vivo [11]; female, po, 5 mg/kg, AUC0-inf",9.5 ± 1.85 µg·h/mL
same,Cmax,"in vivo [11]; female, po, 5 mg/kg, Cmax",0.474 ± 0.029 µg/mL
same,Tmax,"in vivo [11]; female, po, 5 mg/kg, Tmax",7 h
same,half-life,"in vivo [11]; female, po, 5 mg/kg",10 h
same,Cmax,in vivo [12],2.31 ± 0.767 µg/mL
same,AUC0-inf,in vivo [12]; AUC0-inf,38.5 µg·h/mL
same,Cmax,"in vivo [12]; Cmax, Balb/c mouse, PO 5 mg kg-1, 0.5 w/v Methocel (susp.)",2.66 ± 0.469 µg/mL
same,half-life,in vivo [12]; t½,8.6 ± 2.8 h
same,IC20 at 72 h,in vitro [13],11.8 µM
same,IC50 at 24 h,in vitro [14],> 100 µM
"COc1c(N2C[C@@H]3CCCN[C@@H]3C2)c(F)cc2c(=O)c(C(=O)O)cn(C3CC3)c12 [Moxifloxacin, moxifloxacin, reference compound]",Survival of mice under monotherapy,"[2]; in vivo, iv",100%
same,"Day of death, individual mice",[2]; intravenous model,96
